The source made the active and inactive calls. The calls are words filed in the database; no cut-off is given here. A value given as a limit tells only on which side of the number the result lay.

Experimental findings from ChEMBL document CHEMBL2069208, “Isolactarane and sterpurane sesquiterpenoids from the basidiomycete Phlebia uda” (J Nat Prod, 2012) are described below.

For assay [1], the system named is Jurkat. Description: Growth inhibition of human Jurkat cells. Type of assay: functional, cell-based.
The subject of a further assay is HepG2. As to the kind of experiment: Growth inhibition of human HepG2 cells up to 50 ug/ml. It is filed as functional, cell-based.
The subject of another assay is Pyricularia grisea. As to the kind of experiment: Inhibition of spore germination of Magnaporthe grisea assessed as compound concentration causing 75 to 100% germination inhibition. Type of assay: functional.
In a further assay the test system is Fusarium graminearum. As to the kind of experiment: Inhibition of spore germination of Fusarium graminearum assessed as compound concentration causing 75 to 100% germination inhibition. It is filed as functional.
The next assay relates to Botrytis cinerea. As to the kind of experiment: Inhibition of spore germination of Botrytis cinerea assessed as compound concentration causing 75 to 100% germination inhibition. Type of assay: functional.
In another assay the test system is Phytophthora infestans. As to the kind of experiment: Inhibition of spore germination of Phytophthora infestans assessed as compound concentration causing 75 to 100% germination inhibition. Type of assay: functional.
Assay [2] concerns Jurkat. As to the kind of experiment: Growth inhibition of human Jurkat cells up to 50 ug/mL. Type of assay: functional, cell-based.

Usually IC50 stands for the concentration at which inhibition is half-maximal. `CC1=C2C[C@@](C)(C(=O)O)C[C@H]2C[C@]2(C)CC[C@]12O` had an IC50 with Jurkat [1] of 160 µM. The “growth inhibition (GI)” value in the assay on HepG2 was “inactive”.

As for `CC1(C)CC2=C(C=O)[C@@]34C[C@]3(C[C@@H]2C1)C(=O)OC4O` (stereo not given in full), the INH in the assay on Pyricularia grisea was determined as 10 µg/mL; with Fusarium graminearum, 10 µg/mL; in the assay with Botrytis cinerea it was 50 µg/mL; in the assay with Phytophthora infestans, 25 µg/mL.

Consider `CC1=C2C[C@@](C)(CO)C[C@H]2C[C@]2(C)CC[C@]12O`, for which the “growth inhibition (GI)” value in the assay with HepG2 and in the assay on Jurkat [2] was “inactive” throughout.

Compound `CCC(C)CCOC1OC(=O)[C@]23C[C@@H]4CC(C)(C)CC4=C(C=O)[C@]12C3` (mixture of isomers) [UDALACTARANE A] showed an IC50 in the assay on Jurkat [1] of 101 µM. Besides, the INH with Pyricularia grisea was 10 µg/mL; in the assay with Fusarium graminearum, 10 µg/mL; in the assay on Botrytis cinerea, greater than 100 µg/mL; in the assay on Phytophthora infestans it was 100 µg/mL. Besides, the “growth inhibition (GI)” value with HepG2 is “inactive”.

For the compound `CC1=C2C[C@@](C)(COC3OC(=O)[C@]45C[C@@H]6CC(C)(C)CC6=C(C=O)[C@]34C5)C[C@H]2C[C@]2(C)CC[C@]12O` (mixture of isomers) [UDALACTARANE B], the IC50 in the assay with Jurkat [1] was determined as 42 µM. The INH in the assay with Fusarium graminearum was 5 µg/mL; in the assay with Botrytis cinerea it was greater than 100 µg/mL; in the assay with Phytophthora infestans it was 10 µg/mL. Besides, the “growth inhibition (GI)” value in the assay with HepG2 is “inactive”.

For `Cc1cc(C2CCCCC2)n(O)c(=O)c1` [CICLOPIROX], the INH in the assay on Botrytis cinerea stood at 50 µg/mL.
